Measured values reported in patent US20240376142A1, “A-SALIDROSIDE, METHOD FOR PREPARING SAME, AND APPLICATION THEREOF” (SHANDONG HENGLU BIOTECH. CO., LTD., priority 2021, published 2024).

Experiments:
[1] = DPPH radical scavenging experiment; format: biochemical; conditions: for DPPH Radical Scavenging Rate: 500 mg/L aqueous sample solution mixed 1:1 with 0.04 mg/ml DPPH ethanol solution, dark, 517 nm
Text: Free radicals play a significant role, either directly or indirectly, in oxidative processes and are widely involved in the physiological and pathological processes of the body. When the body has an excess of free radicals, the body damage can be caused by free radicals through oxidative actions. Phenolic compounds, being donors of phenolic hydroxyl groups, form the structural basis for antioxidant activity. This experiment employs the DPPH [1,1-Diphenyl-2-trinitrophenyl hydrazine, also known as 1,1-Diphenyl-2-picrylhydrazyl, (free radical)] radical scavenging reaction to study the scavenging efficiency of α-salidroside and β-salidroside on DPPH radicals. • (1) α-salidroside solution: prepared as a 500 mg/L aqueous solution using conventional methods. • (2) β-salidroside solution: prepared as a 500 mg/L aqueous solution using conventional methods. • (3) DPPH ethanol solution: prepared as a 0.04 mg/ml solution in anhydrous ethanol using conventional methods. • (1) 0.9 mL each of α-salidroside solution and β-salidroside aqueous solution were taken separately, and 0.9 mL of DPPH anhydrous ethanol solution was added to each, mixed well, and then left to stand in the dark. Samples were taken at 0.5 h, 1 h, 2 h, and 4 h respectively, and the absorbance was measured at a wavelength of 517 nm. The average of three parallels was calculated and noted as Ai. • (2) 0.9 mL each of α-salidroside solution and β-salidroside aqueous solution were taken separately, and 0.9 mL of anhydrous ethanol was added to each, mixed well, and then left to stand in the dark […]. Samples were taken at 0.5 h, 1 h, 2 h, and 4 h respectively, and the absorbance was measured at a wavelength of 517 nm. The average of three parallels was calculated and noted as Aj. • (3) 0.9 mL of distilled water was taken, to which 0.9 mL of DPPH ethanol solution was added, mixed well, and the absorbance was measured at a wavelength of 517 nm. The average of three parallels was calculated and noted as A4. • (4) 0.9 mL of anhydrous ethanol was taken, to which 0.9 mL of distilled water was added, mixed well, and was used as a blank. The DPPH radical scavenging rate was calculated according to the formula below, and the results were recorded in Table 3. [formula]

[2] = Hydroxyl radical scavenging experiment (Fenton reaction, 1,10-phenanthroline spectrophotometry); format: biochemical; conditions: for Hydroxyl Radical Scavenging Rate: 37° C., 30 minutes, 536 nm
Text: The Hydroxyl Radical Scavenging Activity is an important indicator for measuring the antioxidant capacity of substances. Currently, the main analytical testing methods for hydroxyl radicals include High Performance Liquid Chromatography, Chemiluminescence, Fluorescence Analysis, and Spectrophotometry, etc. Among them, the most commonly used method for measuring the hydroxyl radical scavenging activity is Spectrophotometry, which can be used to determine the inhibition of the absorbance decline of the colorant 1,10-Phenanthroline by the sample, thereby reflecting the ability of the sample to scavenge hydroxyl radicals. The measurement principle is as follows: H2O2/Fe^2+ produces hydroxyl radicals through the Fenton reaction, oxidizing Fe^2+ in the 1,10-Phenanthroline-Fe^2+ aqueous solution to Fe^3+, leading to a decline in the absorbance at 536 nm. The degree to which the sample inhibits the rate of absorbance decline at 536 nm reflects the ability of the sample to scavenge hydroxyl radicals.
• (1) FeSO4 Solution: 1.5 mM and 5 mM FeSO4 aqueous solutions were prepared using conventional methods. • (2) PBS Buffer: • 1) 0.2 mol/L sodium dihydrogen phosphate and 0.2 mol/L disodium hydrogen phosphate aqueous solutions were prepared. • 2) 19 mL of sodium dihydrogen phosphate aqueous solution and 81 mL of disodium hydrogen phosphate aqueous solution were taken, mixed well, and the pH was adjusted to 7.4 (measured with a pH meter, and the pH value was adjusted with 0.1 mol/L sodium hydroxide or 0.1 mol/L phosphoric acid if necessary). • (3) 1,10-Phenanthroline: 0.75 mM and 3 mM aqueous solutions were prepared using conventional methods. • (4) Hydrogen Peroxide (H2O2) Solution: 0.1% (v/v) aqueous solution was prepared using conventional methods. • (5) α-salidroside Solution: 1 mg/mL and 4 mg/mL aqueous solutions were prepared using conventional methods. • (6) β-salidroside Solution: 1 mg/mL and 4 mg/mL aqueous solutions were prepared using conventional methods.
Scheme 1: Using 5 mM FeSO4 aqueous solution, 0.1% hydrogen peroxide, 1 mg/mL α-salidroside aqueous solution or 1 mg/mL β-salidroside aqueous solution, and 3 mM 1,10-Phenanthroline aqueous solution, the following operation steps were carried out for the reaction.
Scheme 2: Using 1.5 mM FeSO4 aqueous solution, 0.1% hydrogen peroxide, 4 mg/mL α-salidroside aqueous solution or 4 mg/mL β-salidroside aqueous solution, and 0.75 mM 1,10-Phenanthroline aqueous solution, the following operation steps were carried out for the reaction.
Specific Operation Steps: (1) 40 μL of α-salidroside solution or β-salidroside solution was taken separately, to which 40 μL of FeSO4 solution, 60 μL of PBS buffer solution (pH 7.4), and 40 μL of 1,10-Phenanthroline solution were added respectively, mixed well. Then, 40 μL of H2O2 solution was added and mixed well again. […] Using distilled water as blank, the absorbance at 536 nm wavelength was measured and the average of three parallels was calculated and noted as Ai.
(2) 80 μL of distilled water was taken, to which 40 μL of FeSO4 solution, 60 μL of PBS buffer solution (pH 7.4), and 40 μL of 1,10-Phenanthroline solution were added and mixed well. […] Using distilled water as blank, the absorbance at 536 nm wavelength was measured and the average of three parallels was calculated and noted as Aj. […] Using distilled water as blank, the absorbance at 536 nm wavelength was measured and the average of three parallels was calculated and noted as A0.

[3] = Scheme 1: 1 mg/mL sample solution, 5 mM FeSO4, 0.1% hydrogen peroxide, 3 mM 1,10-Phenanthroline
[4] = Scheme 2: 4 mg/mL sample solution, 1.5 mM FeSO4, 0.1% hydrogen peroxide, 0.75 mM 1,10-Phenanthroline

Row | Structure (SMILES) | DPPH Radical Scavenging Rate ([1]; 0.5 h) | DPPH Radical Scavenging Rate ([1]; 1 h) | DPPH Radical Scavenging Rate ([1]; 2 h) | DPPH Radical Scavenging Rate ([1]; 4 h) | capability of scavenging DPPH radicals compared to β-salidroside ([1]; in words, from Table 3, especially when the reaction time is over 1 hour) | Hydroxyl Radical Scavenging Rate [2, 3] | Hydroxyl Radical Scavenging Rate [2, 4] | capability in scavenging hydroxyl radicals compared to β-salidroside ([2]; in words, from Table 4, both schemes)
1 | OC[C@H]1O[C@H](OCCc2ccc(O)cc2)[C@H](O)[C@@H](O)[C@@H]1O [α-salidroside, 2-(4-hydroxyphenyl) ethyl-α-D-glucopyranoside] | 19.29% | 28.45% | 31.00% | 34.12% | higher capability of scavenging DPPH radicals compared to β-salidroside | 28.69% | 21.62% | far superior to that of β-salidroside
2 | OC[C@H]1O[C@@H](OCCc2ccc(O)cc2)[C@H](O)[C@@H](O)[C@@H]1O [β-salidroside, reference compound] | 19.96% | 23.21% | 28.24% | 28.33% |  | 13.92% | 4.05% | 
